Laboratory results: patent US20080255062A1, “AXON REGENERATION FROM ADULT SENSORY NEURONS” (UNIVERSITY OF MANITOBA, priority 2007, published 2008)
Counter-ions that a name gives are not always drawn.

Tests used:
[1] = tested on: adult sensory neurons; assay: Small molecule screen for axon regeneration and outgrowth in adult neural cell suspensions (Example 3); assay type: cell-based, Sprague-Dawley rat; details: 10 μM drug, 24 hrs incubation; average of 4 fields from 3 wells (12 fields) ± SE; 30×30 μm grid
Text: A single adult male Sprague-Dawley rat weighing between 250 g-450 g was anesthetized by isofluorane induction. After no response to external stimuli, the rat was sacrificed by guillotine.
Unnecessary satellite tissues and nerve fibers were cleaned from the DRG tissue immersed in the cell suspension medium at ambient room temperature using # 5 student forceps and a #10 scalpel blade under a Fisher Scientific Stereomaster® dissecting microscope (Stereomaster is a registered trademark of Fischer Scientific Co., LLC., Hampton, N.H., USA). The cleaned DRG tissue was placed into fresh cell suspension medium.
The cleaned DRG tissue was digested enzymatically to remove collagen fibers and proteinaceous material thereby releasing single DRG cells, as follows. […] The DRG tissue was then transferred to a fresh collagenase enzyme-cell suspension medium and incubated for another hour, after which the collagenase-digested DRG tissue was aspirated and washed twice in cell suspension medium pre-warmed to ambient room temperature.
The washed collagenase-digested DRG tissue was then placed into cell suspension medium to which a trypsin enzyme preparation (Prod. # T5266 from porcine pancreas; supplied by Sigma-Aldrich) was added to a final concentration of 0.25%, and then incubated for twenty minutes at 37° C. in a sterile atmosphere comprising 5% CO2. The trypsin action was stopped by the addition of 1 mL of pre-warmed HyClone fetal bovine serum […] (FBS Prod. # SH30070.01 supplied by Thermo Fisher Scientific, Napean, ON, Canada). The enzyme-digested DRG tissue was then washed twice with cell suspension medium supplemented with 10% FBS to ensure deactivation of trypsin activity. The enzyme-digested DRG tissue was then washed twice with cell suspension medium to remove the FBS.
The enzyme-digested DRG tissue was taken up from the cell suspension medium into a borosilicate glass Pasteur pipette (note that a borosilicate glass pipette was used to minimize DRG tissue sticking to the pipette) and was triturated about 15 times to disrupt the DRG tissue and to disassociate individual cells, after which the large tissue fragments were allowed to settle out of the suspension.
The supernatent containing satellite cells and debris was aspirated and discarded. […] The Ham's F12 medium containing 15% BSA served as a purification column for the supernatent and produced several upper layers containing dead cells, cellular debris and satellite layers over pellet of live neural cells. The upper layers were removed by aspiration with a Pasteur pipette. The cell pellet was resuspended in 1 mL of plating medium which comprised the cell suspension medium amended with 15 mM D-glucose (for a final concentation of 25 mM glucose). The 1 mL of suspended neural cells was then added to 19 mL of plating medium to make a 20-mL suspension of live neural cells.
600 μL of the neural cell suspension was removed to a 1.5 mL Eppendorf centrifuge tube.
The 600-μL reserved neural cell suspension was separated into three 200-μL aliquots which were then each plated into a well. The growth-factor-amended neural cell suspension was then plated into the remaining 93 wells in 200-μL aliquots. DMSO (Cat. # D2650 supplied by Sigma-Aldrich) was added to the three control wells (i.e., containing neural cell suspension that was not amended with growth factor supplements). The 96-well plate was then stored in a direct-heat humidified incubator (Form a CO2 Incubator supplied by Thermo Fisher Scientific) at 37° C. in a sterile atmosphere comprising 5% CO2.
(§1) High resolution and high pixel density digitized images of neurons were acquired. […] Total axon outgrowth was determined by placing a 30×30 μm grid over the image and counting the total number of intercepts with the grid line. Total neurite lengths were determined by the summing the lengths of all the neurites produced by an individual neuron.

[2] = tested on: adult neural cells isolated from three-month-old STZ rats; assay: Axon outgrowth from adult neural cells of streptozotocin diabetic rats (Example 4); assay type: cell-based, Sprague-Dawley rat (STZ diabetic); details: 24-h incubation, 25 mM glucose
Procedure: as §1

[3] = tested on: adult neurals cells isolated from four-month old ZDF rats; assay: Axon outgrowth from adult neural cells of Zucker diabetic fatty rats (Example 5); assay type: cell-based, Zucker diabetic fatty rat; details: 24-h incubation, 25 mM glucose
Procedure: as §1

[4] = at the dosages tested (0.1, 1.0, 10.0 μM)

Molecule	Ave number of intersects per cell per well [1]	further results
NCC(CC(=O)O)c1ccc(Cl)cc1 (stereo not shown) [Baclofen]	9.8 ± 2.2	–
Cn1c(=O)c2c(ncn2C)n(C)c1=O [Caffeine]	3.25 ± 1.6	–
CC(C(=O)O)c1cccc(C(=O)c2ccccc2)c1 (stereo not shown) [Ketoprofen]	7.9 ± 0.7	–
CC(=O)O[C@]1(C(C)=O)CC[C@H]2[C@@H]3C=C(C)C4=CC(=O)CC[C@]4(C)[C@H]3CC[C@@]21C [Megastrol acetate]	9.2 ± 1.8	–
CC(C)(Oc1ccc(CCNC(=O)c2ccc(Cl)cc2)cc1)C(=O)O [Bezafibrate]	6.9 ± 1.7	–
C=N[C@@H](C(=O)N[C@@H]1C(=O)N2[C@@H]1SC(C)(C)[C@@H]2C(=O)O)c1ccccc1 [Metampicillin sodium]	6.7 ± 1.3	–
O=S(=O)(O)CCS [Mesna]	8.8 ± 3.9	–
CCCC(CCC)C(=O)[O-].[Na+] [Sodium valproate]	8.5 ± 1.8	–
CN1CCN(CC(=O)N2c3ccccc3C(=O)Nc3cccnc32)CC1 [Pirenzepine HCl]	4.4 ± 0.7	axon outgrowth relative to the controls [2, 4]: did not have significant effects; axon outgrowth relative to the controls [3, 4]: did not have significant effects
CC(C)NCC(O)COc1ccc(CC(N)=O)cc1 (stereo not shown) [Atenolol]	6.2 ± 0.2	–
Hydrocortizone	10.7 ± 1.7	–
CCCCOc1cc(C(=O)NCCN(CC)CC)c2ccccc2n1 [Dibucaine hydrochloride]	2.0 ± 0.3	–
Aminopentanoic acid	–	axon outgrowth relative to the controls [2, 4]: did not have significant effects
CN[C@@H]1[C@H](O[C@H]2[C@H](O[C@H]3[C@H](O)[C@@H](O)[C@H](NC(=N)N)[C@@H](O)[C@@H]3NC(=N)N)O[C@@H](C)[C@]2(O)CO)O[C@@H](CO)[C@H](O)[C@H]1O [Dihydrostreptomycin HCl]	2.4 ± 0.6	–
COc1ccccc1OCC(O)CO (stereo not shown) [Guaifenesin]	5.0 ± 0.9	axon outgrowth relative to the controls ([2]; 10.0 μM): significantly increased; axon outgrowth relative to the controls ([3]; 0.1 μM): significantly increased
CCC1(c2ccc(N)cc2)CCC(=O)NC1=O (stereo not shown) [Aminoglutethimide]	5.9 ± 2.0	–
CCN(CC)C(C)CN1c2ccccc2Sc2ccccc21 (stereo not shown) [Ethopropazine HCL]	4.4 ± 1.4	axon outgrowth relative to the controls ([3]; 10.0 μM): significantly increased
COc1c2occc2cc2ccc(=O)oc12 [Methoxsalen]	9.7 ± 2.0	–
Nc1ccc(/N=N/c2ccccc2)c(N)n1 [Phenazopyridine HCl]	10.2 ± 0.2	–
Aminopentanoic acid HCl	4.3 ± 0.4	–
